Assay results from US20250282802A1, “P[…] AND METHODS” (priority 2020, published 2025).
Where two headings read alike, the source gives them in different places.

Legend:
HOS (human osteosarcoma) = test: Cell culture cytotoxicity screening (Alamar Blue), HOS; assay type: cell-based; conditions: 72 hours
Procedure: (§1) FIG. 8. Cytotoxicity of pantaphos across various cancer cell lines. Assays were conducted as described (mBio. 2021 Feb. 2; 12(1):e03402-20), using the Alamar Blue method with 72-hour treatment using Raptinal ([…]) as Dead cell control; n=3. Cell seeding densities: CT26 (colon carcinoma) 2000 c/w; HOS (osteosarcoma) 2500 c/w; ES-2 (ovarian carcinoma), HCT-116 (colorectal carcinoma), A-549 (lung carcinoma), A-172 (glioblastoma), D54 (glioblastoma), U87 (glioblastoma), T98G (glioblastoma), SK-ML-28 (melanoma), MCF-7 (breast cancer), AM38 (glioblastoma) and MDA-MB-231 (breast cancer) 3000 c/w; U118MG (malignant glioma) 4000 c/w; HepG2 (liver cancer) 8000 c/w. c/w=cells per well. […]
(§2) Cell culture cytotoxicity screening. The compounds were evaluated for their ability to kill cancer cell lines in culture, using HOS (osteosarcoma); ES-2 (ovarian cancer); HCT 116 (colon cancer); A549 (lung carcinoma); and A172 (glioma) cells. Human skin fibroblast cells (HFF-1) were also assessed. […] 72 hours post-treatment, cell viability was assessed using the Alamar Blue method (http://www.bio-rad-antibodies.com/measuring-cytotoxicity-proliferation-spectrophotometry-fluorescence-alamarBlue.html). […] Conversion of Alamar Blue was measured with a plate reader (SpectraMax M3; Molecular Devices) by fluorescence (excitation wavelength: 555 nm; emission wavelength: 585 nm; cutoff 570 nm; autogain). […]

U87 (glioblastoma) = test: Cytotoxicity profiling (Alamar Blue), U87; assay type: cell-based; conditions: Homo sapiens, 72-hour treatment
Procedure: as §1, §2

[1] = system: U118MG (malignant glioma); test: Cytotoxicity profiling (Alamar Blue), U118MG; assay type: cell-based; conditions: Homo sapiens, U-118-MG, 72-hour treatment
Procedure: as §1, §2

HepG2 (liver cancer) = test: Cytotoxicity profiling (Alamar Blue), HepG2; assay type: cell-based, human
Procedure: (§3) FIG. 8. Cytotoxicity of pantaphos across various cancer cell lines. Assays were conducted as described (mBio. 2021 Feb. 2; 12(1):e03402-20), using the Alamar Blue method with 72-hour treatment using Raptinal ([…]) as Dead cell control; n=3. Cell seeding densities: CT26 (colon carcinoma) 2000 c/w; HOS (osteosarcoma) 2500 c/w; ES-2 (ovarian carcinoma), HCT-116 (colorectal carcinoma), A-549 (lung carcinoma), A-172 (glioblastoma), D54 (glioblastoma), U87 (glioblastoma), T98G (glioblastoma), SK-ML-28 (melanoma), MCF-7 (breast cancer), AM38 (glioblastoma) and MDA-MB-231 (breast cancer) 3000 c/w; U118MG (malignant glioma) 4000 c/w; HepG2 (liver cancer) 8000 c/w. c/w=cells per well. IC50 and Emax values shown in Table 6 were extracted from the raw data plotted in FIG. 8.
(§4) Cell culture cytotoxicity screening. The compounds were evaluated for their ability to kill cancer cell lines in culture, using HOS (osteosarcoma); ES-2 (ovarian cancer); HCT 116 (colon cancer); A549 (lung carcinoma); and A172 (glioma) cells. Human skin fibroblast cells (HFF-1) were also assessed. Cells were seeded (3000 cells well^−1 for ES-2, HCT 116, A549 and A172; 4000 cells well^−1 for HFF-1 and 2500 cells well^−1 for HOS) in a 96-well plate and allowed to attach overnight. Cells were treated with pantaphos in water. The concentrations of the tested compounds were 5 nM to 100 μM (1% water final; 100 μl well^−1). Raptinal (50 μM) was used as a dead control. On each plate, five technical replicates per compound were performed. 72 hours post-treatment, cell viability was assessed using the Alamar Blue method (http://www.bio-rad-antibodies.com/measuring-cytotoxicity-proliferation-spectrophotometry-fluorescence-alamarBlue.html). […] Conversion of Alamar Blue was measured with a plate reader (SpectraMax M3; Molecular Devices) by fluorescence (excitation wavelength: 555 nm; emission wavelength: 585 nm; cutoff 570 nm; autogain). Percentage death was determined by normalizing to water-treated cells and Raptinal-treated cells. […]

CT26 (colon carcinoma) = test: Cytotoxicity profiling (Alamar Blue), CT26; assay type: cell-based
Procedure: as §3, §4

human cell lines = test: Cytotoxicity profiling against a panel of human cell lines; assay type: cell-based; conditions: human cell lines of Table 2, with the exception of ES-2; read-out: IC50 levels, range for each of the cell lines tested
Procedure: Cell culture cytotoxicity screening. The compounds were evaluated for their ability to kill cancer cell lines in culture, using HOS (osteosarcoma); ES-2 (ovarian cancer); HCT 116 (colon cancer); A549 (lung carcinoma); and A172 (glioma) cells. Human skin fibroblast cells (HFF-1) were also assessed. Cells were seeded (3000 cells well^−1 for ES-2, HCT 116, A549 and A172; 4000 cells well^−1 for HFF-1 and 2500 cells well^−1 for HOS) in a 96-well plate and allowed to attach overnight. Cells were treated with pantaphos in water. The concentrations of the tested compounds were 5 nM to 100 μM (1% water final; 100 μl well^−1). Raptinal (50 μM) was used as a dead control. On each plate, five technical replicates per compound were performed. 72 hours post-treatment, cell viability was assessed using the Alamar Blue method (http://www.bio-rad-antibodies.com/measuring-cytotoxicity-proliferation-spectrophotometry-fluorescence-alamarBlue.html). Alamar Blue solution (10 μl of 440 μM resazurin in sterile 1×PBS) was added to each well, and the plate was incubated for 3-4 hrs. Conversion of Alamar Blue was measured with a plate reader (SpectraMax M3; Molecular Devices) by fluorescence (excitation wavelength: 555 nm; emission wavelength: 585 nm; cutoff 570 nm; autogain). Percentage death was determined by normalizing to water-treated cells and Raptinal-treated cells. […]

[2] = system: Enterococcus faecalis ATCC 19433; test: Antibacterial bioassay (MIC), Enterococcus faecalis; assay type: cell-based; conditions: ATCC19433, Mueller-Hinton 2 medium, CLSI, read-out: MIC, Rich medium
Procedure: (§5) Antibacterial bioassays. Susceptibility testing for the ESKAPE pathogens and Salmonella enterica LT2 was performed using a Kirby-Bauer method as outlined by the Clinical and Laboratory Standards Institute (CLSI). For rich media bioassays, Mueller Hinton Broth 2 (MH-2, Sigma-Aldrich, 90922) was used for all strains except 1% BHI was supplemented for Enterococcus faecalis ATCC 19433. For minimal media bioassays, glucose-MOPS minimal medium was used. Briefly, overnight bacterial cultures were sub-cultured and inoculated into 5 mL top agar (0.7% agar) for final concentration of 5×10^5 CFU/mL. Then, 20 μL of a compound 2-fold dilution series (200, 100, 50, 25, 12.5, 6.25 μM in water) was spotted on 6 mm diameter blank paper discs (BD BBL™ 231039). Control discs received 20 μL of 50 mg/mL kanamycin. Plates were incubated at 35° C. for 20-24 hours. […] Sensitivity of the IPTG-inducible phosphonate uptake strain WM6242 to pantaphos was tested using a disk diffusion assay. Plates containing growth medium were overlayed with 5 mL of top agar (0.7% agar) inoculated with 100 μL (OD600=0.8) of the phosphonate-specific E. coli indicator strain (WM6242) with or without addition of 1 mM IPTG. WM6242 is engineered with an IPTG-inducible, non-specific phosphonate uptake system (phnCDE). […]

[3] = system: Staphylococcus aureus ATCC 29213; test: Antibacterial bioassay (MIC), Staphylococcus aureus; assay type: cell-based; conditions: CLSI
Procedure: as §5

[4] = system: Klebsiella pneumoniae ATCC 27736; test: Antibacterial bioassay (MIC), Klebsiella pneumoniae; assay type: cell-based; conditions: CLSI
Procedure: as §5

[5] = system: Pseudomonas aeruginosa PAO1; test: Antibacterial bioassay (MIC), Pseudomonas aeruginosa; assay type: cell-based; conditions: CLSI
Procedure: as §5

[6] = system: Escherichia coli ATCC 25922; test: Antibacterial bioassay (MIC), Escherichia coli ATCC 25922; assay type: cell-based; conditions: CLSI
Procedure: as §5

Salmonella enterica LT2 = test: Antibacterial bioassay (MIC), Salmonella enterica; assay type: cell-based; conditions: CLSI
Procedure: as §5

Escherichia coli WM6242 = test: Disk diffusion assay with phosphonate-specific bioassay strain E. coli WM6242; assay type: cell-based
Procedure: Antibacterial bioassays. Susceptibility testing for the ESKAPE pathogens and Salmonella enterica LT2 was performed using a Kirby-Bauer method as outlined by the Clinical and Laboratory Standards Institute (CLSI). For rich media bioassays, Mueller Hinton Broth 2 (MH-2, Sigma-Aldrich, 90922) was used for all strains except 1% BHI was supplemented for Enterococcus faecalis ATCC 19433. For minimal media bioassays, glucose-MOPS minimal medium was used. Briefly, overnight bacterial cultures were sub-cultured and inoculated into 5 mL top agar (0.7% agar) for final concentration of 5×10^5 CFU/mL. Then, 20 μL of a compound 2-fold dilution series (200, 100, 50, 25, 12.5, 6.25 μM in water) was spotted on 6 mm diameter blank paper discs (BD BBL™ 231039). Control discs received 20 μL of 50 mg/mL kanamycin. Plates were incubated at 35° C. for 20-24 hours. […] Sensitivity of the IPTG-inducible phosphonate uptake strain WM6242 to pantaphos was tested using a disk diffusion assay. Plates containing growth medium were overlayed with 5 mL of top agar (0.7% agar) inoculated with 100 μL (OD600=0.8) of the phosphonate-specific E. coli indicator strain (WM6242) with or without addition of 1 mM IPTG. WM6242 is engineered with an IPTG-inducible, non-specific phosphonate uptake system (phnCDE). After the seeded overlay solidified, 6 mm paper disks were spotted with 10 μL of a dilution series (200, 100, 50, 25, 12.5, 6.25 μM in water) of pantaphos and applied to the plates that were then incubated at 37° C. for 24 hours. Phosphonate-specific activity was queried by comparing sensitivity to that of 200 μM kanamycin and 200 μM fosfomycin.

[7] = Mueller-Hinton 2 medium, read-out: MIC, Rich medium
[8] = glucose-MOPS minimal medium, read-out: MIC, Minimal medium

O=C(O)/C=C(\C(=O)O)C(O)P(=O)(O)O (stereo not drawn) [pantaphos, 2-(hydroxy(phosphono)methyl)maleate]
IC50 (HOS (human osteosarcoma)): 37 ± 6.28 µM
Emax (HOS (human osteosarcoma); read-out: Emax = percentage cell death (converted)): 58%
Emax (U87 (glioblastoma)): 38 to 48%
Emax [1]: 38 to 45%
sensitivity of the cell line to the compound, in words (HepG2 (liver cancer); HepG2): sensitive
Emax (HepG2 (liver cancer); Homo sapiens, HepG2, Alamar Blue, 72-hour treatment): 71 to 77%
IC50 (HepG2 (liver cancer); Homo sapiens, HepG2, Alamar Blue, 72-hour treatment (Table 6)): 4.22 ± 0.57 µM
sensitivity of the cell line to the compound, in words (CT26 (colon carcinoma); CT26): sensitive
IC50 (CT26 (colon carcinoma); CT26, Alamar Blue, 72-hour treatment (Table 6)): 3.38 ± 0.09 µM
Emax (CT26 (colon carcinoma); Mus musculus, CT26, Alamar Blue, 72-hour treatment): 81 to 92%
IC50 (human cell lines): 6 to 37 µM
MIC [2]: > 200 µM
MIC ([3]; ATCC29213, Mueller-Hinton 2 medium, read-out: MIC, Rich medium): > 200 µM
MIC ([3]; ATCC29213, glucose-MOPS minimal medium, read-out: MIC, Minimal medium): > 200 µM
MIC ([4]; ATCC27736, Mueller-Hinton 2 medium, read-out: MIC, Rich medium): > 200 µM
MIC ([4]; ATCC27736, glucose-MOPS minimal medium, read-out: MIC, Minimal medium): > 200 µM
MIC [5, 7]: > 200 µM
MIC [5, 8]: > 200 µM
MIC ([6]; ATCC25922, Mueller-Hinton 2 medium, read-out: MIC, Rich medium): > 200 µM
MIC ([6]; ATCC25922, glucose-MOPS minimal medium, read-out: MIC, Minimal medium): > 200 µM
MIC (Salmonella enterica LT2; [7]): > 200 µM
MIC (Salmonella enterica LT2; [8]): > 200 µM
MIC (Escherichia coli WM6242; +IPTG, Mueller-Hinton 2 medium, read-out: MIC, Rich medium): >200 µM
MIC (Escherichia coli WM6242; +IPTG, glucose-MOPS minimal medium, read-out: MIC, Minimal medium): >200 µM
MIC (Escherichia coli WM6242; Escherichia coli, WM6242, −IPTG, Mueller-Hinton 2 medium, read-out: MIC, Rich medium): > 200 µM
MIC (Escherichia coli WM6242; Escherichia coli, WM6242, −IPTG, glucose-MOPS minimal medium, read-out: MIC, Minimal medium): > 200 µM
sensitivity of the strain to pantaphos, in words (Escherichia coli WM6242; with or without IPTG induction): insensitive
